Data as given in PubChem BioAssay (NCI).
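Briefly, cells in 96-well plates were exposed to five compound concentrations for 48 h, and endpoints were estimated by linear interpolation. TGI is the concentration that stops growth completely.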

Legend:
Assay in all cases: NCI tumour cell line growth inhibition, 48 h
A498 renal = tested on: A498 renal
IGROV1 ovarian = tested on: IGROV1 ovarian
LOX IMVI melanoma = tested on: LOX IMVI melanoma
MCF7 breast = tested on: MCF7 breast
OVCAR-5 ovarian = tested on: OVCAR-5 ovarian
RPMI-8226 leukemia = tested on: RPMI-8226 leukemia
SF-268 CNS = tested on: SF-268 CNS
SF-539 CNS = tested on: SF-539 CNS
SK-OV-3 ovarian = tested on: SK-OV-3 ovarian
SN12C renal = tested on: SN12C renal
SNB-19 CNS = tested on: SNB-19 CNS
BT-549 breast = tested on: BT-549 breast
HS 578T breast = tested on: HS 578T breast
SR leukemia = tested on: SR leukemia
T-47D breast = tested on: T-47D breast

Structure (SMILES)	TGI (A498 renal)	TGI (IGROV1 ovarian)	TGI (LOX IMVI melanoma)	TGI (MCF7 breast)	TGI (OVCAR-5 ovarian)	TGI (RPMI-8226 leukemia)	TGI (SF-268 CNS)	TGI (SF-539 CNS)	TGI (SK-OV-3 ovarian)	TGI (SN12C renal)	TGI (SNB-19 CNS)	TGI (BT-549 breast)	TGI (HS 578T breast)	TGI (SR leukemia)	TGI (T-47D breast)
COC(=O)C(C/C=C(\C)c1ccc(Cl)cc1)C(C)=O (stereo unspecified)	> 100 µM	> 100 µM	28.1 µM	> 100 µM	> 90.3 µM	> 69 µM	> 100 µM	> 100 µM	> 100 µM	> 100 µM	> 100 µM				
COC(=O)CCC(C)C1CCC2C3C(C[C@H](OC(C)=O)[C@]12C)[C@@]1(C)CCC2(C[C@H]1C[C@H]3OC(C)=O)OOC1(CC[C@]3(C)C4C[C@H](OC(C)=O)[C@]5(C)C(C(C)CCC(=O)OC)CCC5C4[C@H](OC(C)=O)C[C@@H]3C1)OO2 (stereo partly specified)		> 100 µM	> 100 µM	> 100 µM	> 100 µM	> 100 µM	> 100 µM		> 100 µM	> 100 µM	> 100 µM	> 100 µM	> 100 µM	99.1 µM	
CSC12c3cc(C)n(-c4ccccc4)c3CC(C)(C)CN1C(=O)C2Oc1ccccc1 (stereo unspecified)	> 100 µM	> 100 µM	> 100 µM	> 100 µM	> 100 µM	> 100 µM		> 100 µM		> 100 µM	> 100 µM	> 100 µM		> 100 µM	> 100 µM
COc1cccc(NC(=O)C(=O)C(C(=O)c2ccccc2F)C2OC(=O)c3ccccc32)c1 (stereo unspecified)	> 100 µM	> 100 µM	63.3 µM		> 100 µM	96.1 µM	> 100 µM	57.3 µM	> 100 µM	> 100 µM	> 100 µM			48.5 µM	
C=C[C@]1(C)CCC2=C(CCC3C2(C)CCC[C@@]3(C)COC(C)=O)C1 (stereo partly specified)	54.3 µM	38.1 µM	33.8 µM		32.8 µM	35.6 µM	40 µM	37.9 µM	33 µM	31.4 µM	31.9 µM			35.8 µM	
O=c1[nH]c(=O)n(C2OC(CO)C(O)C2O)cc1Oc1ccccc1 (stereo unspecified)	> 100 µM	> 100 µM	> 100 µM	> 100 µM	> 100 µM		> 100 µM	> 100 µM	> 100 µM	> 100 µM	> 100 µM		> 100 µM	> 100 µM	> 100 µM
COC(=O)C1(C(=O)OC)N=C(C)OC1/C=C/c1ccccc1 (stereo unspecified)	> 100 µM	> 100 µM	> 100 µM	> 100 µM	> 100 µM	> 100 µM			> 100 µM	> 100 µM	> 100 µM	> 100 µM		> 100 µM	> 100 µM
CC(=O)OC1COC(N2C(=O)C(=O)c3cc(Br)ccc32)C(OC(C)=O)C1OC(C)=O (stereo unspecified)	> 100 µM	> 100 µM	> 100 µM			> 100 µM	> 100 µM	> 100 µM	> 100 µM	> 100 µM	> 100 µM			> 100 µM	
Cc1c2ccncc2c(C)c2c1[nH]c1ccc(OCC(F)(F)F)cc12		3.03 µM	3.09 µM		2.86 µM	5.32 µM	3.06 µM	3.16 µM	3.31 µM	2.78 µM	3.03 µM			4.2 µM	
CC(=O)OC12c3ccccc3-c3ccccc3C1C1C(=O)OC(=O)C12 (stereo unspecified)	> 10 µM	> 10 µM	> 10 µM	> 10 µM	> 10 µM	> 10 µM	> 10 µM	> 10 µM	> 10 µM	> 10 µM	> 10 µM		> 10 µM	> 10 µM	> 10 µM
COC1(O)c2cccc(Cl)c2C(=O)N1C1(C(N)=O)CCCCC1 (stereo unspecified)	> 100 µM	> 100 µM	> 100 µM	> 100 µM	> 100 µM	> 100 µM	> 100 µM	> 100 µM	> 100 µM	> 100 µM	> 100 µM				
CC(C)(CCCCC(C)(C)[N+](C)(C)C)[N+](C)(C)C		> 100 µM		> 100 µM	> 100 µM	> 100 µM	> 100 µM	> 100 µM	> 100 µM	> 100 µM	> 100 µM		> 100 µM	> 100 µM	> 100 µM
COc1ccccc1/C=C1\NC(=S)N(/C=C2\C(=O)Oc3ccccc3C2=O)C1=O		> 100 µM	> 100 µM	> 100 µM	> 100 µM		> 100 µM	96.7 µM	> 100 µM	> 100 µM	> 100 µM	> 100 µM	> 100 µM		
C=CCOC(=O)C1=C(CCC[C@@H](C)O[Si](C)(C)C(C)(C)C)N=C(N)N2[C@H](CCO)CC[C@@H]12	35.7 µM			25.7 µM		27.6 µM	31 µM		27.2 µM	31.7 µM	29 µM	36.5 µM			28.9 µM
COC(=O)[C@H](Cc1ccc(OC(C)(C)C)cc1)N[C@H](C)C(=O)N[C@@H](Cc1ccccc1)C(=O)OCc1ccccc1	> 100 µM	> 100 µM	> 100 µM	81.5 µM	> 100 µM	> 100 µM	> 100 µM	> 100 µM	> 100 µM	> 100 µM	> 100 µM		> 100 µM	70.5 µM	
COc1ccc(C2C3CCc4ccccc4C3=NN2S(=O)(=O)c2ccc(/C=C/C(=O)O)cc2)cc1 (stereo unspecified)		4.91 µM	24.5 µM	6.55 µM	> 100 µM	16 µM	71.2 µM	6.29 µM	4.72 µM	> 100 µM	> 100 µM	> 100 µM		6.9 µM	> 100 µM
COc1cc(C2C(Cl)C(=O)N2NC(=O)c2ccc(N)cc2)cc(Br)c1O (stereo unspecified)	59 µM	34 µM	11 µM		38.8 µM	51.5 µM	19.7 µM	35.2 µM	73 µM	33.4 µM	24 µM				
Ic1cc2c(cc1C1SCCCS1)OCO2	> 100 µM	> 100 µM	> 100 µM		> 100 µM	> 100 µM	> 100 µM	> 100 µM	> 100 µM	> 100 µM	> 100 µM			> 100 µM	
